Results from US20020137929A1, “1 - (3-heterocyclylphenyl) isothiourea, -isourea, -guanidine and -amidine herbicidal agents” (Intellectual Property Department, BASF Aktiengesellschaft, priority 1998, published 2002).

Experiments:
[1] = test system: CHEAL (Lambsquarters, Common); test: Preemergence herbicidal evaluation; assay type: in vivo, Chenopodium album; conditions: rated 4-5 weeks after treatment
Outline: (§1)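 Each species is sown separately in potting soil over roughly an inch of soil before any emergence. The soil surface then receives an aqueous acetone spray delivering about 0.0156 to 0.500 kg/ha of compound. After four to five weeks, injury is scored from 0 to 9 relative to a control.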

[2] = test system: TRZAWR (Wheat, Winter, cv Riband); test: Preemergence herbicidal evaluation; assay type: in vivo, Triticum aestivum; conditions: rated 4-5 weeks after treatment
Outline: as §1

[3] = test system: IPOHE (Morningglory, Ivyleaf); test: Preemergence herbicidal evaluation; assay type: in vivo, Ipomoea hederacea; conditions: rated 4-5 weeks after treatment
Outline: as §1

GALAP (Galium) = test: Postemergence herbicidal evaluation; assay type: in vivo, Galium aparine; conditions: postemergence
Outline: (§2)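 First, seedlings were raised for around two weeks. Next, test material in 50/50 acetone/water containing 0.5% TWEEN 20 was sprayed through a nozzle at 40 psi, equivalent to about 0.0156–0.500 kg/ha. Finally, after 4–5 weeks in the greenhouse, plants were rated 0–9.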

ORYSAT (Rice, Tebonnet) = test: Preemergence herbicidal evaluation; assay type: in vivo, Oryza sativa, (L.) Tebonnet; conditions: rated 4-5 weeks after treatment
Outline: as §1

CASOB (Sicklepod) = test: Postemergence herbicidal evaluation; assay type: in vivo, Cassia obtusifolia; conditions: postemergence
Outline: as §2

[4] = test system: ECHORC (Watergrass (Calif.)); test: Preemergence weed control under flooded paddy conditions; assay type: in vivo, Echinochloa oryzoides; conditions: rated 3-4 weeks after treatment
Outline: (§3)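 Visual injury scored 0-9 against control three to four weeks post-treatment, greenhouse-grown. Application: acetone/water (50/50) solutions dosed directly into flood water (1.5-3 cm over silt loam, planted top 0.5 cm), roughly 0.0313 to 0.500 kg/ha active ingredient.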

CYPIR (Rice Flatsedge) = test: as above; assay type: in vivo, Cyperus iria; conditions: rated 3-4 weeks after treatment
Outline: as §3

CYPSE (Flatsedge) [5] = test: as above; assay type: in vivo, Cyperus serotinus; conditions: rated 3-4 weeks after treatment
Outline: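 Silt loam, seeds in top 0.5 cm; flood held 1.5-3 cm; test cpd as acetone/water 50/50 into flood water, ~0.0313-0.500 kg/ha a.i.; greenhouse 3-4 wk; visual 0-9 score vs control.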

[6] = test system: ECHORC (Watergrass (Calif.)); test: Postemergence weed control under flooded paddy conditions; assay type: in vivo, Echinochloa oryzoides; conditions: postemergence weeds, 3-4 weeks after treatment
Outline: (§4)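 Flood-water application, about 0.0313–0.500 kg/ha a.i. in aqueous/acetone 50/50 v/v; water depth 1.5–3 cm throughout. Weeds 3–5 cm, rice 1.5–2.5 leaf. Greenhouse; 0–9 visual rating vs control at 3–4 wk.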

AMBEL (Ragweed, Common) = test: Preemergence herbicidal evaluation; assay type: in vivo, Ambrosia artemisifolia; conditions: rated 4-5 weeks after treatment
Outline: as §1

ZEAMX (Corn, Field) [7] = test: Preemergence herbicidal evaluation; assay type: in vivo, Zea mays; conditions: rated 4-5 weeks after treatment
Outline: as §1

ZEAMX (Corn, Field) [8] = test: Postemergence herbicidal evaluation; assay type: in vivo, Zea mays; conditions: postemergence
Outline: as §2

CYPSE (Flatsedge) [9] = test: Postemergence weed control under flooded paddy conditions; assay type: in vivo, Cyperus serotinus; conditions: postemergence weeds, 3-4 weeks after treatment
Outline: as §4

CCOC(=O)/C=C1/S/C(=N/c2cc(-n3c(=O)cc(C(F)(F)F)n(C)c3=O)c(F)cc2Cl)N(CC(=O)OCC)C1=O [Compound 14]
2.0: GALAP herbicidal rating (GALAP (Galium); rate 0.0156 kg/ha) | CASOB herbicidal rating (CASOB (Sicklepod); rate 0.0313 kg/ha) | CASOB herbicidal rating (CASOB (Sicklepod); rate 0.0625 kg/ha) | Herbicidal rating CYPIR (CYPIR (Rice Flatsedge); 0.0313 kg/ha) | ZEAMX preemergence herbicidal rating (ZEAMX (Corn, Field) [7]; rate 0.2500 kg/ha)
7.0: Herbicidal rating ECHORC ([6]; rate 0.2500 kg/ha) | ZEAMX herbicidal rating (ZEAMX (Corn, Field) [8]; rate 0.0156 kg/ha) | ZEAMX herbicidal rating (ZEAMX (Corn, Field) [8]; rate 0.0313 kg/ha)
0.8: Herbicidal rating ECHORC ([6]; rate 0.0313 kg/ha)
1.0: ORYSAT preemergence herbicidal rating (ORYSAT (Rice, Tebonnet); rate 0.2500 kg/ha) | AMBEL preemergence herbicidal rating (AMBEL (Ragweed, Common); rate 0.0625 kg/ha)
4.5: Herbicidal rating ECHORC ([4]; 0.0625 kg/ha) | Herbicidal rating CYPIR (CYPIR (Rice Flatsedge); 0.1250 kg/ha)
3.8: Herbicidal rating ECHORC ([6]; rate 0.1250 kg/ha)
0.5: ORYSAT preemergence herbicidal rating (ORYSAT (Rice, Tebonnet); rate 0.1250 kg/ha)
7.5: IPOHE preemergence herbicidal rating ([3]; rate 0.1250 kg/ha) | Herbicidal rating ECHORC ([4]; 0.1250 kg/ha) | ZEAMX herbicidal rating (ZEAMX (Corn, Field) [8]; rate 0.0625 kg/ha) | ZEAMX herbicidal rating (ZEAMX (Corn, Field) [8]; rate 0.1250 kg/ha)
9.0: CHEAL preemergence herbicidal rating ([1]; rate 0.0313 kg/ha) | CHEAL preemergence herbicidal rating ([1]; rate 0.0625 kg/ha) | CHEAL preemergence herbicidal rating ([1]; rate 0.1250 kg/ha) | CHEAL preemergence herbicidal rating ([1]; rate 0.2500 kg/ha) | CHEAL preemergence herbicidal rating ([1]; rate 0.5000 kg/ha) | IPOHE preemergence herbicidal rating ([3]; rate 0.2500 kg/ha) | IPOHE preemergence herbicidal rating ([3]; rate 0.5000 kg/ha) | CASOB herbicidal rating (CASOB (Sicklepod); rate 0.1250 kg/ha) | Herbicidal rating ECHORC ([4]; 0.2500 kg/ha) | AMBEL preemergence herbicidal rating (AMBEL (Ragweed, Common); rate 0.2500 kg/ha) | AMBEL preemergence herbicidal rating (AMBEL (Ragweed, Common); rate 0.5000 kg/ha)
2.3: Herbicidal rating ECHORC ([6]; rate 0.0625 kg/ha)
6.5: AMBEL preemergence herbicidal rating (AMBEL (Ragweed, Common); rate 0.1250 kg/ha)
6.0: GALAP herbicidal rating (GALAP (Galium); rate 0.1250 kg/ha)
3.0: ORYSAT preemergence herbicidal rating (ORYSAT (Rice, Tebonnet); rate 0.5000 kg/ha) | Herbicidal rating CYPSE (CYPSE (Flatsedge) [5]; 0.1250 kg/ha) | ZEAMX preemergence herbicidal rating (ZEAMX (Corn, Field) [7]; rate 0.5000 kg/ha)
5.0: GALAP herbicidal rating (GALAP (Galium); rate 0.0625 kg/ha)
4.0: GALAP herbicidal rating (GALAP (Galium); rate 0.0313 kg/ha)
1.5: IPOHE preemergence herbicidal rating ([3]; rate 0.0625 kg/ha) | Herbicidal rating ECHORC ([4]; 0.0313 kg/ha) | ZEAMX preemergence herbicidal rating (ZEAMX (Corn, Field) [7]; rate 0.1250 kg/ha) | Herbicidal rating CYPSE (CYPSE (Flatsedge) [9]; rate 0.1250 kg/ha)
2.5: Herbicidal rating CYPIR (CYPIR (Rice Flatsedge); 0.0625 kg/ha)
0.0: TRZAWR preemergence herbicidal rating ([2]; rate 0.0313 kg/ha) | TRZAWR preemergence herbicidal rating ([2]; rate 0.0625 kg/ha) | TRZAWR preemergence herbicidal rating ([2]; rate 0.1250 kg/ha) | TRZAWR preemergence herbicidal rating ([2]; rate 0.2500 kg/ha) | IPOHE preemergence herbicidal rating ([3]; rate 0.0313 kg/ha) | ORYSAT preemergence herbicidal rating (ORYSAT (Rice, Tebonnet); rate 0.0313 kg/ha) | ORYSAT preemergence herbicidal rating (ORYSAT (Rice, Tebonnet); rate 0.0625 kg/ha) | CASOB herbicidal rating (CASOB (Sicklepod); rate 0.0156 kg/ha) | Herbicidal rating CYPIR (CYPIR (Rice Flatsedge); 0.2500 kg/ha) | Herbicidal rating CYPSE (CYPSE (Flatsedge) [5]; 0.0313 kg/ha) | Herbicidal rating CYPSE (CYPSE (Flatsedge) [5]; 0.0625 kg/ha) | Herbicidal rating CYPSE (CYPSE (Flatsedge) [5]; 0.2500 kg/ha) | AMBEL preemergence herbicidal rating (AMBEL (Ragweed, Common); rate 0.0313 kg/ha) | ZEAMX preemergence herbicidal rating (ZEAMX (Corn, Field) [7]; rate 0.0313 kg/ha) | ZEAMX preemergence herbicidal rating (ZEAMX (Corn, Field) [7]; rate 0.0625 kg/ha) | Herbicidal rating CYPSE (CYPSE (Flatsedge) [9]; rate 0.0313 kg/ha) | Herbicidal rating CYPSE (CYPSE (Flatsedge) [9]; rate 0.0625 kg/ha) | Herbicidal rating CYPSE (CYPSE (Flatsedge) [9]; rate 0.2500 kg/ha)
